Assay results taken from PMC4381587, “A novel PI3K inhibitor PIK-C98 displays potent preclinical activity against multiple myeloma” (Oncotarget, 2014).

How the values were obtained:
IGF-1R = assay: Immunoblotting of IGF-1R phosphorylation in starved, IGF-1-stimulated LP1 and JJN3 cells; assay type: cell-based; conditions: 100 μM, 2 hr, then IGF-1
Method: (§1) (B) LP1 and JJN3 cells were starved overnight, then treated with C98 or S14161 for 2 hr, followed by IGF-1 (100 ng/mL) for 15 min. Cells were then prepared for the analysis of the expression of p-AKT, t-AKT, p-IGF-1R, and IGF-1R by immunoblotting. (C) OPM2 and JJN3 cells were treated with increasing concentrations of C98 for 24 hr before being applied to immunoblotting against p-ERK, t-ERK, p-P38, t-P38, p-Src, t-Src, p-STAT3, or t-STAT3. GAPDH and β-actin were used as loading controls.
(§2) To find out whether C98 also interfered with other signaling pathways, we first checked the receptor tyrosine kinase IGF-1R, which mediates PI3K activation in MM cells in the presence of IGF-1. Starved MM cells LP1 and JJN3 were incubated with C98 followed by IGF-1 stimulation. […] Moreover, we also measured the expression of PTEN, a negative regulator of PI3K signaling, in MM cells after C98 treatment.
(§3) The immunoblotting assays were performed as described previously. IRDye 680 goat anti-mouse and IRDye 800CW goat anti-rabbit antibodies were from Odyssey (San Ramon, CA, USA).

PDK1 = system: T1, PDK1; assay: Kinase activity in cell-free assay, PDK1; assay type: biochemical; conditions: enzymatic system, even at a concentration of 300 μM
T1 construct: purchased Reaction Biology Corp., Malvern, PA, USA
Method: (§4) To confirm this hypothesis, the inhibitory potency of C98 on PI3K enzymes was measured in a cell-free system with individual recombinant human PI3K isoforms. […] To further evaluate its specificity on PI3K, the effects of C98 on other associated kinases AKT, PDK1, and mTOR were also measured in the enzymatic systems. […] Therefore, C98 preferred to inhibit PI3K activity.
(§5) Kinase activity in the presence of C98 was performed by using the HotSpot technology (Reaction Biology Corp., Malvern, PA, USA) as described previously.

[1] = Body weight and hematology analysis in xenograft mice; assay type: in vivo
Method: Totally 50 female […] mice from Shanghai Slac Laboratory Animal Co. Ltd were used for the xenograft models with human MM cell lines OPM2 and JJN3, respectively. When tumors were palpable, the OPM2-xenograft mice were randomly divided into two groups. One group as a control was received the vehicle, and another group was orally administrated C98 (80 mg/kg) once a day for continuous 16 days. The JJN3 xenografted mice were randomly divided into three groups which were orally administrated vehicle or C98 (40 or 80 mg/kg), respectively. Body weight and tumor volumes were measured every other day as described previously. At the end of this experiment, tumors were collected for further studies. The concentrations of C98 in tumor tissues were also determined by LC-MS/MS as described above. All experiments involved in mice were reviewed and approved by the Review Board of Animal Care and Use of Soochow University.
At the end of the experiment of the in vivo studies, whole blood samples were collected from the eyes and were immediately subject to complete blood analysis as described previously. […]
www.impactjournals.com/oncotarget/ Oncotarget, Supplementary Materials 2014 […]
OPM2 (A) and JJN3 (B) were injected (s.c.) […]
into nude mice. When tumors were palpable, mice were orally administrated C98 at dosage as indicated for continued 16 days. Mice bodyweight was monitored every other day. […]

[2] = system: KMS11, LP1, OCI-My5, OPM2, JJN3, and RPMI-8226; assay: Immunoblotting of PARP and caspase-3 cleavage in MM cell lines; assay type: cell-based; conditions: all cell lines examined, 20 μM, 24 hr
Method: (§6) To answer whether C98 could induce apoptosis in other MM cells, 5 more MM cells were subject to the study. […] Cell apoptosis induced by C98 was further confirmed by the increased fraction of positive cells stained with Annexin V (Figure 5). To show whether activated PI3K signals can rescue C98 effects on MM cells, both OPM2 and RPMI-8226 cells were treated with IGF-1 alone or together with C98 for 48 hr followed by MTT assay.
(§7) Figure 4 C98 activates apoptotic signaling in MM cells (A) JJN3 cells were treated with C98 (0, 2.5, 5, 10, 20 μM) for 24 hr or 10 μM for 0, 3, 6, or 9 hr, followed by immunoblotting for the expression of p-AKT, t-AKT, pro-caspase-3 (Pro-Casp3), and cleaved caspase-3 (Cle-Casp3). (B) KMS11, LP1, OCI-My5, OPM2, JJN3, and RPMI-8226 were treated with C98 (20 μM) for 24 hr, followed by immunoblotting for the expression of PARP, Pro-Casp3, and Cle-Casp3. GAPDH was used as a loading control.
as §3

mTOR = system: T2, mTOR; assay: Kinase activity in cell-free assay, mTOR; assay type: biochemical; conditions: enzymatic system, even at a concentration of 300 μM
T2 construct: purchased Reaction Biology Corp., Malvern, PA, USA
Method: as §4, §5

[3] = system: AKT phosphorylation in LP1 and JJN3 cells; assay: Immunoblotting of AKT phosphorylation in starved, IGF-1-stimulated LP1 and JJN3 cells; assay type: cell-based; conditions: 2 hr, then IGF-1 100 ng/mL 15 min
Method: as §1, §2, §3

JJN3 cells = assay: Immunoblotting of caspase-3 activation in JJN3 cells; assay type: cell-based, human; conditions: JJN3, 0-20 μM 24 hr or 10 μM 0-9 hr
Method: as §6, §7, §3

[4] = biological target: recombinant human PI3K isoform γ (Homo sapiens, UniProt P48736); assay: Kinase activity in cell-free assay (HotSpot), PI3Kγ; assay type: biochemical; conditions: read-out: IC50 against PI3K γ isoform
Method: as §4
(§8) Figure 1 C98 inhibits PI3K activity (A) Chemical structure of C98. (B) OPM2 cells were starved overnight and then treated with six compounds identified from the virtual screening for 2 hr, followed by IGF-1 stimulation for 15 min. Cell lysates were prepared for AKT expression and phosphorylation analyses. The known PI3K inhibitor S14161 was used as a positive control. (C) OPM2 cells were starved overnight, then treated with C98 at indicated concentration (25, 50 and 100 μM) or S14161 (100 μM) for 2 hr, followed by IGF-1 (100 ng/mL) stimulation for 15 min Cell lysates were prepared for AKT expression and phosphorylation analyses. […] Activity of each kinase was determined with HotSpot technology as described in the Methods section “Kinase activity in cell-free assay”. […]

[5] = biological target: recombinant human PI3K isoform β (Homo sapiens, UniProt P42338); assay: Kinase activity in cell-free assay (HotSpot), PI3Kβ; assay type: biochemical; conditions: read-out: IC50 against PI3K β isoform
Method: as §4, §8

[6] = system: AKT phosphorylation in OPM2 cells; assay: Immunoblotting of AKT phosphorylation in starved, IGF-1-stimulated OPM2 cells; assay type: cell-based, human; conditions: OPM2 starved overnight, C98 25-100 μM, 0.5-2 hr, then IGF-1 100 ng/mL 15 min
Method: as §4, §8

Sequence of recombinant human PI3K isoform β (P42338 whole entry, canonical isoform): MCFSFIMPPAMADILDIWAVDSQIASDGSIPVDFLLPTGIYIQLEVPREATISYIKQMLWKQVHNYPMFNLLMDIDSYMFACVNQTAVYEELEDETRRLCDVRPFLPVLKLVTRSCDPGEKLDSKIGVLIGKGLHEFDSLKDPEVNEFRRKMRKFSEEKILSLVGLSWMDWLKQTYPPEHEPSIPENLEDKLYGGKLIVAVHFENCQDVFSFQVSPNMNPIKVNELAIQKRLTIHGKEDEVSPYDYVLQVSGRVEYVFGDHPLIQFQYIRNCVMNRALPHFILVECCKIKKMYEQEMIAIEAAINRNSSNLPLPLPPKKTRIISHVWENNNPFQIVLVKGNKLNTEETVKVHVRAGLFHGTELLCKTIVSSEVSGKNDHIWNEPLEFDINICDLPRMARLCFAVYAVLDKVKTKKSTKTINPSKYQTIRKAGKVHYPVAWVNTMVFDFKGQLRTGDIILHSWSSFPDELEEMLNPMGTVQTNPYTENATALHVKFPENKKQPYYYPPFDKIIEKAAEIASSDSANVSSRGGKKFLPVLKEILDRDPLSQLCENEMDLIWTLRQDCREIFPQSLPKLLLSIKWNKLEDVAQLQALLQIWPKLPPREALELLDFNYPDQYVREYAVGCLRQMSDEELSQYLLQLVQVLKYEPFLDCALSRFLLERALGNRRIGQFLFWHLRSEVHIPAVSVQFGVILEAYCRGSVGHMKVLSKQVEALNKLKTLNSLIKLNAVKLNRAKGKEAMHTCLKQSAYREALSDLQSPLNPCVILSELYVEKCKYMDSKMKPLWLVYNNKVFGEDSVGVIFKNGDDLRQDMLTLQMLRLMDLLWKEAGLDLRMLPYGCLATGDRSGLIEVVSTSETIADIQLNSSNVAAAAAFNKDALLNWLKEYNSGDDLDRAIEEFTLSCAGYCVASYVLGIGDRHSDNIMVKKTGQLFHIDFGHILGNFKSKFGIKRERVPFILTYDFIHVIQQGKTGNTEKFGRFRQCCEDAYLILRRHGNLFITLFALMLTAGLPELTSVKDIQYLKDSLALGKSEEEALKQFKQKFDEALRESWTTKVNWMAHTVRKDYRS
Sequence of recombinant human PI3K isoform β (P27986 whole entry partner, canonical isoform): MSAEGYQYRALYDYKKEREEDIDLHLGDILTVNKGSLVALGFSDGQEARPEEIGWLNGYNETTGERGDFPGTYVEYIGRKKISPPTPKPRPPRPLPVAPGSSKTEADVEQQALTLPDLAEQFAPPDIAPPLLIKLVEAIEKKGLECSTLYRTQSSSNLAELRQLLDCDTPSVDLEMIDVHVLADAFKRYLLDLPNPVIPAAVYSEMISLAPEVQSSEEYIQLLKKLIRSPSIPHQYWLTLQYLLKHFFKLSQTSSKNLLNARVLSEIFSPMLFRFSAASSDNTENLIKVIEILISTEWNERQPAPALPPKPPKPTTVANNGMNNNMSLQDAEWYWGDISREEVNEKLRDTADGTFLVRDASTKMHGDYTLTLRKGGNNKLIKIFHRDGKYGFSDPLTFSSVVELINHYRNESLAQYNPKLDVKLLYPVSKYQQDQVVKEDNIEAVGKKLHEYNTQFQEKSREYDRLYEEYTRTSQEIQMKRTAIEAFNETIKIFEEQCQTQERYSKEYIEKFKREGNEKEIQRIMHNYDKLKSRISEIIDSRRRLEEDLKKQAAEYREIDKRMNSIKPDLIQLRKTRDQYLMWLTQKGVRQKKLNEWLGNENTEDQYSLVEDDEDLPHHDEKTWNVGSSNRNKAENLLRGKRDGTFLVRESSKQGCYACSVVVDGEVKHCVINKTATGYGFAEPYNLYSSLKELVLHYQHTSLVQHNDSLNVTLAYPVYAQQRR
Sequence of recombinant human PI3K isoform γ (P48736 whole entry, canonical isoform): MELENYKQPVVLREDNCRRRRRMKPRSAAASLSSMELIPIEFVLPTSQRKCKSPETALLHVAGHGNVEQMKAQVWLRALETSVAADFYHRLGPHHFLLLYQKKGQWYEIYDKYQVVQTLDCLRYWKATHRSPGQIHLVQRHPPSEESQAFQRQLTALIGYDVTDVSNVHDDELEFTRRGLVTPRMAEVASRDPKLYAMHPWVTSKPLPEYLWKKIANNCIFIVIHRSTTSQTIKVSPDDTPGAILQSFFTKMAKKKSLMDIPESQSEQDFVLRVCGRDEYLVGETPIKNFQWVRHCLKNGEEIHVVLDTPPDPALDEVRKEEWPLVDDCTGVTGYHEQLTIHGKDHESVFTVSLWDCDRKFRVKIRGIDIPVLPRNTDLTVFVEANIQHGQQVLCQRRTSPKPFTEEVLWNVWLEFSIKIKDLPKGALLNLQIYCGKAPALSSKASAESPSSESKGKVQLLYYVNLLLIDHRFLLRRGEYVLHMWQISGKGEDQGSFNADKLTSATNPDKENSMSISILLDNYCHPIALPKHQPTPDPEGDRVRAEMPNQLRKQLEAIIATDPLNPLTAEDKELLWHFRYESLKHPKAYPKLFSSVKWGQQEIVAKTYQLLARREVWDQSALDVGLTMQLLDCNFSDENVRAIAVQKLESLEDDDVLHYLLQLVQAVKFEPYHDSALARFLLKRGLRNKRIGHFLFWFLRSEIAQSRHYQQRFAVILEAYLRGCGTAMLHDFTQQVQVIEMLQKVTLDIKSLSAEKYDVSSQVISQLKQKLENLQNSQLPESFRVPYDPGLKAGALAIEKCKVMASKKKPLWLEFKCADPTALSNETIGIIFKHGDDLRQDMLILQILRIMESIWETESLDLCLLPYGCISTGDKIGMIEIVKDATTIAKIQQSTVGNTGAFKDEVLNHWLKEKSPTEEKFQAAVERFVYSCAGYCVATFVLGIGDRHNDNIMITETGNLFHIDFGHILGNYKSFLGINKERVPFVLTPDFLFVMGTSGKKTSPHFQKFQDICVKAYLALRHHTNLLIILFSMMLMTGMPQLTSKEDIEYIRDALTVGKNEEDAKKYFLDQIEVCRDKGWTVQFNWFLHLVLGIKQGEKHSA

N#C/C(=C\C=C\c1ccc(-c2cc(Cl)ccc2Cl)o1)C(N)=S [C98]
IGF-1R activation (phosphorylation) (IGF-1R): had no effects on IGF-1R activation
suppression of PDK1 activity (PDK1): failed to suppress
body weight of mice ([1]; OPM2 and JJN3 xenograft models, oral 40 or 80 mg/kg, 16 days): had no effects on body weight
blood cell count, platelet count, hemoglobin measurement ([1]; mice treated with C98, end of the in vivo studies (data not shown)): no significant changes
cleavage of caspase-3 and PARP (apoptosis) [2]: both caspase-3 and PARP were cleaved
suppression of mTOR activity (mTOR): failed to suppress
AKT phosphorylation [3]: suppressed AKT phosphorylation
caspase-3 activation (JJN3 cells): activated caspase-3 in a time- and concentration-dependent manner
IC50 [4]: 740 nM
IC50 [5]: 1640 nM
AKT phosphorylation [6]: inhibited AKT phosphorylation in a time- and concentration-dependent manner
